Data published in patent US8703936B2, “Compositions and methods for modification of biomolecules” (The Regents of the University of California, priority 2010, dated 2014).
Where “and” joins values, the source holds several entries; their conditions need not be identical. Equal entries are not always repeated.

Tests used:
[1] = tested on: CHO cells grown with Ac4ManNAz (azide-labeled glycans); assay: Cell-surface labeling of azido glycans on CHO cells and imaging by fluorescence microscopy; type: cell-based, Chinese hamster
Description: BARAC-Fluor (compound 17) was evaluated as a reagent for direct fluorescence imaging of live Chinese hamster ovary (CHO) cells. CHO cells grown either in the presence or absence of 50 μM Ac4ManNAz were treated with […] BARAC-Fluor (compound 17) for 5 min at rt, washed and then imaged (FIG. 9(a)-(h)).
CHO cells were incubated for 3 days in medium containing 50 μM Ac4ManNAz in an eight-well LabTek II chambered cover glass (Nunc). The medium was poured off, and the cells were washed three times with 200 μl of FACS buffer. The cells then were treated with a solution of BARAC-Fluor, diluted from a 1 mM stock solution in DMSO, in FACS buffer for 5 minutes at 5 μM at room temperature. The cells were also treated with Hoechst 33342 dye to stain the nucleus (1:1,000 dilution in medium of a 1 mg/ml stock solution in DMSO) as soon as possible after the addition of BARAC-Fluor. The cells washed four times with 200 μl of FACS buffer, and imaged at room temperature.
For the no-wash experiment the cells were treated as before, but were incubated in a 250 nM solution of BARAC-Fluor in FACS-buffer. After 25 minutes at room temperature Hoechst 33342 dye (1:1,000 dilution in medium of a 1 mg/ml stock solution in DMSO) was added. After an additional 5 minutes, the cells were imaged without washing away excess reagent. […]

[2] = Reaction rate of BARAC with benzyl azide (1H NMR kinetics); type: physicochemical
Description: The reactivity of BARAC (compound 15) was studied using benzyl azide as a model substrate. The second-order rate constant in acetonitrile at room temperature (rt) was 0.96 M^−1s^−1 (see FIG. 1), over 12-fold higher than the rate constant for DIFO under identical conditions and over 450 times higher than for an unactivated cyclooctyne. The half-life for the reaction of equimolar amounts of BARAC with benzyl azide at 10 mM was about 45 s at rt.
The reaction of BARAC (compound 15) and benzyl azide was monitored by ^1H NMR for 30 min. at 25° C. BARAC and benzyl azide were separately dissolved in CD3CN and mixed together in a 1:1 ratio at concentrations at 10 mM. A 2:1 ratio was used to determine the exact ratio of reagents based on remaining starting material upon completion of the reaction. The percent conversion was calculated by the disappearance of BARAC and benzyl azide relative to the formation of product as determined by integration. No products other than the two regioisomers of addition were apparent by ^1H NMR. The triazole isomers were produced in a ˜1:1 ratio. The second-order rate constant was determined by plotting 1/[compound 15] versus time. The plot was fit to a linear regression and the slope corresponds to the second-order rate constant. Shown in FIG. 1 are data from four replicate experiments.

[3] = Reaction rate of BARAC with 2-azido-N-isopropylacetamide (1H NMR kinetics); type: physicochemical; settings: CD3CN, 25° C., 1:1 at 9.2 mM, three replicates
Description: The reaction of BARAC (compound 15) and 2-azido-N-isopropylacetamide was monitored by ^1H NMR for 30 min. at 25° C. BARAC and the azidoacetamide were separately dissolved in CD3CN and mixed together in a 1:1 ratio at concentrations at close to 10 mM (9.2 mM). Hexamethyldisilane (approx 0.3 equiv) was used as an internal standard. The percent conversion was calculated by the ratio between the formation of products and hexamethyldisilane as determined by integration. No products other than the regioisomers of addition were apparent by ^1H NMR. The ratio of triazole isomers is complicated by rotamers. The second-order rate constant was determined by plotting 1/[compound 15] versus time. The plot was fit to a linear regression and the slope corresponds to the second-order rate constant. Shown are data from three replicate experiments.

[4] = Potential background reaction of BARAC with glutathione; type: physicochemical; settings: 5 mM glutathione in CD3CN:D2O (1:2), 2 mM BARAC, rt
[5] = Stability to chromatography and storage; type: physicochemical; settings: traditional chromatography; storage at room temperature
Excerpt: Oxidation of indole (compound 10) with excess m-CPBA opened the central rings to give the cyclic keto-amide (compound 11), which was unstable to silica-gel purification. These reaction conditions left the terminal alkene untouched. Treatment of the potassium enolate of ketone (compound 11) with trifluoromethanesulfonyl anhydride gave compound 12. Selective reaction of the terminal alkene with a nitrile oxide generated in situ from chlorooxime (compound 13) installed a linker for conjugation to a probe molecule as reported by Huisgen, R. and Gutsmiedl, et al. Huisgen, R. Angew. Chem. Int. Ed., (1963), 2, 565-598; and Gutsmiedl, K.; Wirges, C. T.; Ehmke, V.; Carell, T. Org. Lett., 2009, 11, 2405-2408. Reaction of compound 14 with CsF introduced the strained alkyne in under 30 min at rt. The synthesis of BARAC (compound 15) from compound 9 was accomplished in 6 steps in 18% overall yield (see FIG. 11).

[6] = tested on: Jurkat cells treated with Ac4ManNAz (cell-surface azido sialic acids, SiaNAz)
Description: Cultured Jurkat cells were treated with peracetylated N-azidoacetyl mannosamine (Ac4ManNAz) to introduce the corresponding azido sialic acids (SiaNAz) into their cell-surface glycoproteins and lipids.
Jurkat cells were incubated in untreated media or media containing 25 μM Ac4ManNAz. After 3 d, the cells were twice concentrated (500×g, 3 min, 4° C.) and resuspended in 10 mL FACS buffer (PBS containing 1% FCS, 2×10 mL) and cells (approx 350,000 per a well) were placed in a 96 well V-bottom plate. The cells were concentrated by centrifugation (2500×g, 3 min, 4° C.), resuspended in 200 μL cold FACS buffer, and again concentrated by centrifugation (2500×g, 3 min, 4° C.). […] After 1 h, the cells were thrice concentrated by centrifugation (2500×g, 3 min, 4° C.) and resuspended in 200 μL cold FACS buffer. Following and additional concentration by centrifugation (2500×g, 3 min, 4° C.), cells were resuspended in FACS buffer (100 μL) containing FITC-avidin (1:200 dilution of 1 mg/mL stock, Sigma-Aldrich) and incubated in the dark at 4° C. for 15 min. Following the incubation, cells were concentrated by centrifugation, resuspended in 200 μL cold FACS buffer, concentrated by centrifugation, and another FITC-avidin incubation was performed. After the second FITC-avidin labeling, the cells were thrice concentrated by centrifugation (2500×g, 3 min, 4° C.) and resuspended in 200 μL cold FACS buffer. The cells were then diluted to 400 μL for flow cytometry analysis. Flow cytometry was performed on a BD Biosciences FACSCalibur flow cytometer equipped with a 488-nm argon laser. All flow cytometry experiments were performed with three replicate samples.
Jurkat cells were incubated in the presence or absence of 25 μM Ac4ManNAz for 3 d. […] MFI=mean fluorescence intensity and has arbitrary units (Au).
Jurkat cells were incubated with (+Az) or without (−Az) 25 M Ac4ManNAz for 3 days. The cells were labeled with 1 μM cyclooctyne-biotin for various times and then treated with FITC-avidin. […] The degree of labeling was quantified by flow cytometry. The level of fluorescence was reported in mean fluorescence intensity (MFI, arbitrary unit). Error bars represent the standard deviation of three replicate experiments. […] MFI reported as difference between signal of cells +Az and signal of cells −Az.

[7] = tested on: Jurkat cells; settings: 1 μM, 1 h at 25° C., 7-AAD (FIG. 5)
Description: Jurkat cells were incubated in the presence (+Az, black bar) or absence (−Az, gray bar) of Ac4ManNAz for 3 d. […] Prior to flow cytometry analysis, half the cells were treated with 7-amino-actinomycin D (7-AAD) following the procedure reported at http://www.bdbiosciences.com/external_files/pm/doc/tds/cell_bio/live/web_enabled/68981E—559925.pdf. The samples were diluted and analyzed by flow cytometry. The error bars represent standard deviations from three replicate samples.
In all plots, the x-axis indicates the degree of cell-surface glycan labeling as measured by FITC fluorescence (FL1). For the plots shown if FIG. 6(a)-(d), the y-axis represents the degree of 7-AAD (FL3, cell viability marker).

O=C(OCc1ccc(C2=NOC(CN3C(=O)c4ccccc4C#Cc4ccccc43)C2)cc1)N1CCN(C(=O)c2ccccc2-c2c3ccc(=O)cc-3oc3cc(O)ccc23)CC1 (stereo not drawn) [BARAC-Fluor]
labeling in no-wash experiment ([1]; 250 nM, 30 min at rt, imaged without washing (FIG. 9(i)-(p))): significant labeling above the background
cell surface fluorescence of azide-labeled cells ([1]; 5 μM, 5 min at rt, washed, 50 μM Ac4ManNAz (FIG. 9(a)-(h))): significant cell surface fluorescence

O=C1c2ccccc2C#Cc2ccccc2N1CC1CC(c2ccc(CO)cc2)=NO1 (stereo not drawn) [BARAC]
second-order rate constant ([2]; benzyl azide, acetonitrile (CD3CN), rt (25° C.), 1:1 at 10 mM): 0.96 M⁻¹ s⁻¹ and 0.96 ± 0.04 M⁻¹ s⁻¹
times higher rate constant than an unactivated cyclooctyne ([2]; versus unactivated cyclooctyne): over 450 times
second-order rate constant [3]: 0.64 ± 0.06 M⁻¹ s⁻¹
half-life at 2 mM [4]: 24 h
stability [5]: stable to traditional chromatography and storage at room temperature

BARAC-biotin
cell labeling at low concentration ([6]; 50 nM, 1 h, Jurkat (FIG. 3)): significant cell labeling
labeling compared with DIFO-biotin and DIBO-biotin ([6]; 1 μM cyclooctyne-biotin, after 1 h (FIG. 8(b))): more labeling than DIFO-biotin and DIBO-biotin
fold higher signal than either DIFO-biotin or DIBO-biotin ([6]; 1 μM, after 1 min (FIG. 8(c))): 10 fold
azide-specific cell labeling ([6]; Jurkat ±25 μM Ac4ManNAz 3 d, reagent 1 h, versus FITC-avidin alone (FIG. 3)): robust azide-specific labeling with no significant background labeling
cytotoxicity compared to cells treated with no cyclooctyne reagent [7]: not accompanied by any cytotoxicity
